Like-named read-outs stand apart in the source and are kept apart here.
Experiments:
RWPE-1 cells = test: alamarBlue cytotoxicity assay, RWPE-1; format: cell-based; conditions: Homo sapiens, read-out: RWPE-1 (IC50)
Description: (§1) RWPE-1 cells (ATCC: CRL-36O7) were cultured in keratinocyte serum-free media (K-SFM) supplemented with 0.05 mg/mL bovine pituitary extract and 5 ng/mL epidermal growth factor, and 1% penicillin (100 U/mL; Thermo Fisher Scientific, Waltham, MA, USA), and streptomycin (100 μg/mL; GIBCO). […] Passage numbers remained below 30 as per standard procedures. All cell lines were validated and characterized before use to ensure their authenticity and reliability. Routine mycoplasma testing was conducted to confirm that the cells were free from contamination. Additionally, key functional and morphological characteristics were assessed to verify their alignment with previously reported profiles.
(§2) The alamarBlue® assay (Thermo Fisher Scientific, Waltham, MA USA) was conducted as previously described. RWPE-1 cells, HEK-293 cells, and NCI-H295R cells were plated in 96-well plates at 10,000 cells per well and incubated overnight at 37 °C with 5% CO2. […] Cells were incubated for an additional 24 h. Cell viability was measured using the alamarBlue® assay. Post-incubation, 0.05 mg/mL alamarBlue® solution in phosphate-buffered saline (PBS) was added to each well. The plates were incubated in the dark at 37 °C with 5% CO2 for 4 h, and fluorescence was measured at an excitation wavelength of 540 nm and an emission wavelength of 590 nm. Cell viability was calculated relative to the control sample treated with DMSO. All experiments were conducted in triplicate.

NCI-H295R cells = test: alamarBlue cytotoxicity assay, NCI-H295R; format: cell-based; conditions: Homo sapiens, read-out: NCI-H295R (IC50)
Description: as §1, §2

CYP17A1 17,20-lyase = molecular target: T1, CYP17A1 17,20-lyase (Homo sapiens, UniProt P05093); test: CYP17A1 17,20-lyase activity assay (DHEA from 17OH-pregnenolone, POR, CYP17A1 and cytochrome b5); format: biochemical; conditions: for inhibition at 10 µM: read-out: % Inhibition CYP17A1-Lyase; for Residual 17,20-lyase activity: % of DMSO control; for Lyase/CYP21A2 Selectivity Index: (% Inhibition Lyase)/(% Inhibition CYP21A2) at 10 µM (SM 10 µg/mL); for Lyase/OH Selectivity Index: (% Inhibition Lyase)/(% Inhibition OH) at 10 µM (SM 10 µg/mL)
T1 sequence (P05093 1-508): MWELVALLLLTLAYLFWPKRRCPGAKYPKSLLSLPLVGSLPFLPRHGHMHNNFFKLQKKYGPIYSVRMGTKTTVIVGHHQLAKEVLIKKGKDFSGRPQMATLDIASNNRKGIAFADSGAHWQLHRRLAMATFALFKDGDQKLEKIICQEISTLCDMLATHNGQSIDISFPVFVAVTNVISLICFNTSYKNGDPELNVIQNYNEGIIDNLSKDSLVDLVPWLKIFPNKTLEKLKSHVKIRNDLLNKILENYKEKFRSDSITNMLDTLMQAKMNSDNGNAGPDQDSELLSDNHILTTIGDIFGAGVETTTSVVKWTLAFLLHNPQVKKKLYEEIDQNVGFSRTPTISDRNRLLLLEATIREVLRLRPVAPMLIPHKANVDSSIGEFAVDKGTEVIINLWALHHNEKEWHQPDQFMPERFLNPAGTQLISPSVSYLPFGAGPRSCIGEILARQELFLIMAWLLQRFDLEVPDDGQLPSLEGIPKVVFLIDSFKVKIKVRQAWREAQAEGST
Description: Assay of CYP17A1 17α-hydroxylase and 17,20-lyase activities were performed as described previously. The 17α-hydroxylase activity was measured by conversion of progesterone to 17OH-progesterone, while production of DHEA from 17OH-pregnenolone was used for monitoring the 17,20-lyase activity of CYP17A1. In vitro CYP17A1 assays were performed using a liposome system consisting of human p450 oxidoreductase (POR) and CYP17A1 at a ratio of 3:4 (POR: CYP17A1). […] The drugs were added to the final mixture and incubated for 1h before the catalytic reaction was initiated by the addition of NADPH to 1 mM final concentration. Radiolabeled [^14C]-progesterone (10,000 cpm in 1 µM) was used as a tracer in each reaction. Steroids were extracted and separated by thin-layer chromatography (TLC) on silica gel (SIL G/UV254) TLC plates (Macherey-Nagel, Oensingen, Switzerland) as previously described.
In vitro CYP17A1 17,20-lyase activity assays were performed using POR, CYP17A1 and cytochrome b5 as described previously. The final assay mixture consisted of proteins, 10 mM MgCl2, 6 mM KOAc, 0.05 mg/mL DLPC, 1 mM reduced glutathione in 50 mM HEPES-NaOH buffer (pH 7.4), and the reaction volume was 200 μL. The drugs were added to the final mixture and incubated for 1h before the catalytic reaction was initiated by the addition of NADPH to 1 mM final concentration. Radiolabeled [^3H]-17OH-pregnenolone (50,000 cpm in 1 µM) was added as a tracer and the enzyme activity was measured by using the scintillation counter in the water release assay.

CYP17A1 17α-hydroxylase = molecular target: T2, CYP17A1 17α-hydroxylase (Homo sapiens, UniProt P05093); test: CYP17A1 17α-hydroxylase activity assay (progesterone to 17OH-progesterone, reconstituted POR/CYP17A1); format: biochemical; conditions: for inhibition at 10 µM: read-out: % Inhibition CYP17A1-OH
T2 sequence (P05093 1-508): T1 sequence (P05093 1-508)
Description: Assay of CYP17A1 17α-hydroxylase and 17,20-lyase activities were performed as described previously. The 17α-hydroxylase activity was measured by conversion of progesterone to 17OH-progesterone, while production of DHEA from 17OH-pregnenolone was used for monitoring the 17,20-lyase activity of CYP17A1. In vitro CYP17A1 assays were performed using a liposome system consisting of human p450 oxidoreductase (POR) and CYP17A1 at a ratio of 3:4 (POR: CYP17A1). The final assay mixture consisted of proteins (37.5 […] CYP17A1), 10 mM MgCl2, 6 mM potassium acetate (KOAc), 0.05 mg/mL DLPC,1 mM reduced Glutathione in 50 mM HEPES-NaOH buffer (pH 7.4), and the reaction volume was 200 μL. The drugs were added to the final mixture and incubated for 1h before the catalytic reaction was initiated by the addition of NADPH to 1 mM final concentration. Radiolabeled [^14C]-progesterone (10,000 cpm in 1 µM) was used as a tracer in each reaction. Steroids were extracted and separated by thin-layer chromatography (TLC) on silica gel (SIL G/UV254) TLC plates (Macherey-Nagel, Oensingen, Switzerland) as previously described.

[1] = RWPE-1, cytotoxicity, alamarBlue, 24 h incubation, mean ± SD, three experiments
[2] = cytotoxicity, alamarBlue, 24 h incubation, mean ± SD, three experiments
[3] = 10 µM (SM extract 10 µg/mL), calculated as 100% − % residual activity

Row | Structure (SMILES) | IC50 (RWPE-1 cells; [1]) | IC50 (NCI-H295R cells; [2]) | inhibition at 10 µM (CYP17A1 17,20-lyase; [3]) | Residual 17,20-lyase activity (CYP17A1 17,20-lyase; 10 µM (SM extract 10 µg/mL)) | Lyase/CYP21A2 Selectivity Index (CYP17A1 17,20-lyase) | Lyase/OH Selectivity Index (CYP17A1 17,20-lyase) | inhibition at 10 µM (CYP17A1 17α-hydroxylase; [3]) | IC50 (RWPE-1 cells; RWPE-1, 24 h) | IC50 (NCI-H295R cells; 24 h) | inhibition at 10 µM (CYP17A1 17,20-lyase) | Residual 17α-hydroxylase activity (CYP17A1 17α-hydroxylase; % of DMSO control, 10 µM (SM extract 10 µg/mL)) | inhibition at 10 µM (CYP17A1 17α-hydroxylase)
1 | Cc1coc2c1C(=O)C(=O)c1c-2ccc2c(C)cccc12 [TAI, tanshinone I] | 2270 ± 3250 nM | 1130 ± 630 nM | 28.2% | 72% | High ^c | High ^c | < 1% |  |  |  |  | 
2 | Cc1cccc2c3c(ccc12)C1=C(C(=O)C3=O)[C@@H](C)CO1 [DT, dihydrotanshinone I] |  |  |  | 43% | 3.80 |  |  | 1400 ± 420 nM | 950 ± 480 nM | 56.6% | > 93% | 6.5%
3 | Cc1coc2c1C(=O)C(=O)c1c-2ccc2c1CCCC2(C)C [TAII, tanshinone IIA] | 4500 ± 11800 nM | 1200 ± 3440 nM | 43% | 57% | High ^c | High ^c | < 1% |  |  |  |  | 
